Columns and labels:
Carbonic anhydrase 9 [1] = biological target: T1, Carbonic anhydrase 9 (Homo sapiens, UniProt Q16790); assay: Inhibition of recombinant human carbonic anhydrase 9 preincubated for 15 mins by phenol red dye based stopped flow CO2 hydration assay
CCRF-CEM = assay: Growth inhibition of human CCRF-CEM cells at 10 uM incubated for 48 hrs by sulforhodamine B assay relative to control; format: functional; settings: read-out: GI
RPMI-8226 = assay: Growth inhibition of human RPMI8226 cells at 10 uM incubated for 48 hrs by sulforhodamine B assay relative to control; format: functional; settings: RPMI-8226, 48 h, read-out: GI
EKVX = assay: Growth inhibition of human EKVX cells at 10 uM incubated for 48 hrs by sulforhodamine B assay relative to control; format: functional; settings: read-out: GI
A549 = assay: Growth inhibition of human A549/ATCC cells at 10 uM incubated for 48 hrs by sulforhodamine B assay relative to control; format: functional; settings: A549, 48 h, read-out: GI
NCI-H226 = assay: Growth inhibition of human NCI-H226 cells at 10 uM incubated for 48 hrs by sulforhodamine B assay relative to control; format: functional; settings: NCI-H226, 48 h, read-out: GI
HOP-92 = assay: Growth inhibition of human HOP92 cells at 10 uM incubated for 48 hrs by sulforhodamine B assay relative to control; format: functional; settings: HOP-92, 48 h, read-out: GI
NCI-H460 = assay: Growth inhibition of human NCI-H460 cells at 10 uM incubated for 48 hrs by sulforhodamine B assay relative to control; format: functional; settings: NCI-H460, 48 h, read-out: GI
NCI-H522 = assay: Growth inhibition of human NCI-H522 cells at 10 uM incubated for 48 hrs by sulforhodamine B assay relative to control; format: functional; settings: NCI-H522, 48 h, read-out: GI
HCT-116 = assay: Growth inhibition of human HCT116 cells at 10 uM incubated for 48 hrs by sulforhodamine B assay relative to control; format: functional; settings: HCT-116, 48 h, read-out: GI
HCT-15 = assay: Growth inhibition of human HCT15 cells at 10 uM incubated for 48 hrs by sulforhodamine B assay relative to control; format: functional; settings: HCT-15, 48 h, read-out: GI
HT-29 = assay: Growth inhibition of human HT-29 cells at 10 uM incubated for 48 hrs by sulforhodamine B assay relative to control; format: functional; settings: HT-29, 48 h, read-out: GI
KM12 = assay: Growth inhibition of human KM12 cells at 10 uM incubated for 48 hrs by sulforhodamine B assay relative to control; format: functional; settings: KM12, 48 h, read-out: GI
SW-620 = assay: Growth inhibition of human SW620 cells at 10 uM incubated for 48 hrs by sulforhodamine B assay relative to control; format: functional; settings: SW-620, 48 h, read-out: GI
SNB-19 = assay: Growth inhibition of human SNB19 cells at 10 uM incubated for 48 hrs by sulforhodamine B assay relative to control; format: functional; settings: SNB-19, 48 h, read-out: GI
U-251 = assay: Growth inhibition of human U251 cells at 10 uM incubated for 48 hrs by sulforhodamine B assay relative to control; format: functional; settings: U-251, 48 h, read-out: GI
SK-MEL-2 = assay: Growth inhibition of human SK-MEL-2 cells at 10 uM incubated for 48 hrs by sulforhodamine B assay relative to control; format: functional; settings: SK-MEL-2, 48 h, read-out: GI
MDA-MB-231 = assay: Growth inhibition of human MDA-MB-231 cells at 10 uM incubated for 48 hrs by sulforhodamine B assay relative to control; format: functional; settings: MDA-MB-231, 48 h, read-out: GI
MCF7 = assay: Growth inhibition of human MCF7 cells at 10 uM incubated for 48 hrs by sulforhodamine B assay relative to control; format: functional; settings: MCF7, 48 h, read-out: GI
DU-145 = assay: Growth inhibition of human DU145 cells at 10 uM incubated for 48 hrs by sulforhodamine B assay relative to control; format: functional; settings: DU-145, 48 h, read-out: GI
UO-31 = assay: Growth inhibition of human UO31 cells at 10 uM incubated for 48 hrs by sulforhodamine B assay relative to control; format: functional; settings: UO-31, 48 h, read-out: GI
PC-3 = assay: Growth inhibition of human PC3 cells at 10 uM incubated for 48 hrs by sulforhodamine B assay relative to control; format: functional; settings: PC-3, 48 h, read-out: GI
TK-10 = assay: Growth inhibition of human TK10 cells at 10 uM incubated for 48 hrs by sulforhodamine B assay relative to control; format: functional; settings: TK-10, 48 h, read-out: GI
SN12C = assay: Growth inhibition of human SN12C cells at 10 uM incubated for 48 hrs by sulforhodamine B assay relative to control; format: functional; settings: read-out: GI
CAKI-1 = assay: Growth inhibition of human Caki1 cells at 10 uM incubated for 48 hrs by sulforhodamine B assay relative to control; format: functional; settings: CAKI-1, 48 h, read-out: GI
RXF 393 = assay: Growth inhibition of human RXF393 cells at 10 uM incubated for 48 hrs by sulforhodamine B assay relative to control; format: functional; settings: RXF 393, 48 h, read-out: GI
ACHN = assay: Growth inhibition of human ACHN cells at 10 uM incubated for 48 hrs by sulforhodamine B assay relative to control; format: functional; settings: read-out: GI
786-0 = assay: Growth inhibition of human 786-0 cells at 10 uM incubated for 48 hrs by sulforhodamine B assay relative to control; format: functional; settings: 786-0, 48 h, read-out: GI
A498 = assay: Growth inhibition of human A498 cells at 10 uM incubated for 48 hrs by sulforhodamine B assay relative to control; format: functional; settings: A498, 48 h, read-out: GI
OVCAR-8 = assay: Growth inhibition of human OVCAR8 cells at 10 uM incubated for 48 hrs by sulforhodamine B assay relative to control; format: functional; settings: OVCAR-8, 48 h, read-out: GI
NCI/ADR-RES = assay: Growth inhibition of human NCI/ADR-RES cells at 10 uM incubated for 48 hrs by sulforhodamine B assay relative to control; format: functional; settings: read-out: GI
OVCAR-4 = assay: Growth inhibition of human OVCAR4 cells at 10 uM incubated for 48 hrs by sulforhodamine B assay relative to control; format: functional; settings: OVCAR-4, 48 h, read-out: GI
UACC-257 = assay: Growth inhibition of human UACC257 cells at 10 uM incubated for 48 hrs by sulforhodamine B assay relative to control; format: functional; settings: UACC-257, 48 h, read-out: GI
UACC-62 = assay: Growth inhibition of human UACC62 cells at 10 uM incubated for 48 hrs by sulforhodamine B assay relative to control; format: functional; settings: UACC-62, 48 h, read-out: GI
SK-MEL-5 = assay: Growth inhibition of human SK-MEL-5 cells at 10 uM incubated for 48 hrs by sulforhodamine B assay relative to control; format: functional; settings: SK-MEL-5, 48 h, read-out: GI
BT-549 = assay: Growth inhibition of human BT549 cells at 10 uM incubated for 48 hrs by sulforhodamine B assay relative to control; format: functional; settings: BT-549, 48 h, read-out: GI
T47D = assay: Growth inhibition of human T47D cells at 10 uM incubated for 48 hrs by sulforhodamine B assay relative to control; format: functional; settings: read-out: GI
MDA-MB-468 = assay: Growth inhibition of human MDA-MB-468 cells at 10 uM incubated for 48 hrs by sulforhodamine B assay relative to control; format: functional; settings: MDA-MB-468, 48 h, read-out: GI
Carbonic anhydrase 9 [2] = biological target: T1, Carbonic anhydrase 9; assay: Inhibition of human recombinant carbonic anhydrase 9 by stopped flow CO2 hydration assay

`NS(=O)(=O)c1ccc(N/N=C2\C(=O)N(Cc3ccccc3)c3ccccc32)cc1` was tested, and the Ki (Carbonic anhydrase 9 [1]) was 27.7 nM, the inhibition of growth at 10 µM (CCRF-CEM) was 36% and the inhibition of growth at 10 µM (RPMI-8226) was 38%. The inhibition of growth at 10 µM (EKVX) was 13%, the inhibition of growth at 10 µM (A549) was 25% and the inhibition of growth at 10 µM (NCI-H226) was 21%. It also gave an inhibition of growth at 10 µM (HOP-92) of 34%, an inhibition of growth at 10 µM (NCI-H460) of 20% and an inhibition of growth at 10 µM (NCI-H522) of 46%. For the same molecule, the inhibition of growth at 10 µM (HCT-116) was 28%, the inhibition of growth at 10 µM (HCT-15) was 13% and the inhibition of growth at 10 µM (HT-29) was 21%. The inhibition of growth at 10 µM (KM12) was 10%, the inhibition of growth at 10 µM (SW-620) was 18% and the inhibition of growth at 10 µM (SNB-19) was 13%. The inhibition of growth at 10 µM (U-251) was 17%, the inhibition of growth at 10 µM (SK-MEL-2) was 13% and the inhibition of growth at 10 µM (MDA-MB-231) was 19%. For the same molecule, the inhibition of growth at 10 µM (MCF7) was 21%, the inhibition of growth at 10 µM (DU-145) was 10% and the inhibition of growth at 10 µM (UO-31) was 38%. The inhibition of growth at 10 µM (PC-3) was 25%, the inhibition of growth at 10 µM (TK-10) was 19% and the inhibition of growth at 10 µM (SN12C) was 19%. The inhibition of growth at 10 µM (CAKI-1) was 20%, the inhibition of growth at 10 µM (RXF 393) was 10% and the inhibition of growth at 10 µM (ACHN) was 14%. It also gave an inhibition of growth at 10 µM (786-0) of 22%, an inhibition of growth at 10 µM (A498) of 10% and an inhibition of growth at 10 µM (OVCAR-8) of 17%. The inhibition of growth at 10 µM (NCI/ADR-RES) was 20%, the inhibition of growth at 10 µM (OVCAR-4) was 21% and the inhibition of growth at 10 µM (UACC-257) was 11%. For the same molecule, the inhibition of growth at 10 µM (UACC-62) was 37%, the inhibition of growth at 10 µM (SK-MEL-5) was 12% and the inhibition of growth at 10 µM (BT-549) was 16%. The inhibition of growth at 10 µM (T47D) was 42% and the inhibition of growth at 10 µM (MDA-MB-468) was 27%.
For `NS(=O)(=O)c1ccc(CC/N=C2\NC(=O)/C(=C3/C(=O)Nc4ccc(F)cc43)S2)cc1`, the Ki (Carbonic anhydrase 9 [2]) was 287 nM.

— ChEMBL document CHEMBL4311999, “3-Hydrazinoisatin-based benzenesulfonamides as novel carbonic anhydrase inhibitors endowed with anticancer activity: Synthesis, in vitro biological evaluation and in silico insights” (Eur J Med Chem, 2019)
